Experimental data: PMC6832651, “Design, Synthesis and Investigation of the Potential Anti-Inflammatory Activity of 7-O-Amide Hesperetin Derivatives” (Molecules, 2019)
Where two headings read alike, the source gives them in different places.

Legend:
RAW264.7 cells = assay: MTT cell viability / cytotoxicity assay; assay type: cell-based, mouse; settings: concentrations up to 100 μM, MTT (Figure 1)
Protocol: Compounds 4a–4l, 5a–5b, 6a–6f, 7a–7c were assessed for toxicity against RAW264.7 cell lines using the 3-(4,5-dimethylthiazol-2-yl)-2,5-diphenyltetrazolium bromide (MTT) assay. After 40 μM treatment, the cell viability of all of the hesperetin derivatives was more than 90%. It was thus shown that the anti-inflammatory activities of hesperetin derivatives were not due to their cytotoxicity. In subsequent anti-inflammation studies, the highest concentration of hesperetin derivatives was set below 40 µM.
Cytotoxicity and cell viability was evaluated by a MTT (Sigma, Shanghai, China) assay using a method similar to the one described above. Cells were inoculated at a density of 7.0 × 10^3 cells/well into 96-well plate and cultured at 37 °C for 12 h. […] After that, MTT dissolved in phosphate buffered saline (PBS) and was added to the culture medium to reach a final concentration of 0.5 mg/mL and incubated for another 4 h. The media was removed and 200 μL of DMSO was added and incubated for 30 min. Finally, the cell viability (%) was calculated based on the absorbance measured at the wavelength of 490 nm and measured using a microplate reader (Synergy HTX, Biotek, Winowski, VT, USA). The cell viability were calculated by GraphPad Prism 6 (GraphPad, San Diego, CA, USA).

NF-κB signal pathway = assay: Western blotting of NF-κB signal pathway in LPS-induced RAW264.7 cells; assay type: cell-based, mouse
From the text: Stimulation with LPS leads to the activation of nuclear factor-kappa B (NF-κB), which is a well-known transcription factor that positively regulates inflammation. When NF-κB activation is stimulated by LPS, inhibitor of NF-κB (IκB) protein phosphorylated and degraded frees NF-κB p65 subunit from sequestration, allowing it to translocate to the nucleus, bind to target promoters, and turn on the transcriptions of inflammation genes including TNF-α and IL-6. Therefore, Western blotting was used to examine the effects of compound 4d on LPS induced transcriptional activity of NF-κB in RAW264.7 cells.
After the treatment with LPS ([…]) in the presence different concentration gradient or absence of compounds, removed culture supernatants, and cells were collected and lysed with RIPA lysis buffer (Beyotime, Shanghai, China) and phosphatase inhibitors (Beibokit, Bestbio, Shanghai, China). After centrifugation (4 °C, 30 min, 12,000 rpm, Beckman Coulter, Inc., Fullerton, CA, USA), the total protein concentration was determined using BCA Protein Assay Kit (Beyotime, Shanghai, China). Lysates containing […] of total proteins were fractionated on SDS polyacrylamide gel and transferred to a polyvinylidene difluoride membranes (PVDF) (Merck Millipore, Tullagreen Carrigtwohill, Ireland). Membranes were blocked with 5% skim milk or 3% BSA (Albumin Bovine V, Sigma) in TBST and incubated at 4 °C overnight with their respective primary antibody: β-actin (1:1000 dilution; Abcam, Cambridge, MA, USA), iNOS (1:1000 dilution; Abcam, Cambridge, MA, USA), COX-2 (1:1000 dilution; CST, Danvers, MA, USA ), NF-κB (1:1000 dilution; CST, Danvers, MA, USA). After washing three times with TBST, membranes were incubated with secondary antibody for 1 h in room temperature on the shaker. Protein bands were visualized by the ultra-sensitive enhanced chemiluminescent (ECL) substrate (ECL-plus, Thermo Scientific, Rockford, IL, USA), after washing three times with TBST [34].

[1] = system: LPS-induced NO production in RAW264.7 cells; assay: Inhibition of LPS-induced NO production (Griess reagent); assay type: cell-based; settings: Mus musculus, 10 μM compound, 1 h pretreatment, then LPS (1 μg/mL) 24 h, mean ± SD (n = 3)
COX-2 = assay: Western blotting of COX-2 expression in LPS-induced RAW264.7 cells; assay type: cell-based, mouse; settings: compound 5, 10, 20 μM (Figure 3)
Protocol: (§1) In the process of inflammation, inducible nitric oxide synthase enzymes (iNOS) are induced to overexpression in inflammatory cells when exposed to pro-inflammatory cytokines, which further leads to excessive production of NO. The inhibition of NO production by compound 4d may be correlated with its suppressive effect on LPS-induced iNOS. Thus, the inhibitory effects of compound 4d on LPS-mediated expressions of iNOS were analyzed by western blotting. Nitric oxide synthase (iNOS) protein levels were analyzed after exposure to LPS for 24 h in the presence or absence of compound 4d (5, 10, 20 μM). […] Cyclooxygenase-2 (COX-2) is an important indicator of anti-inflammatory inhibitors, maintaining a low level in normal tissues. […] Bay 11-7082 (5 μM) used as a positive control.
(§2) After the treatment with LPS ([…]) in the presence different concentration gradient or absence of compounds, removed culture supernatants, and cells were collected and lysed with RIPA lysis buffer (Beyotime, Shanghai, China) and phosphatase inhibitors (Beibokit, Bestbio, Shanghai, China). After centrifugation (4 °C, 30 min, 12,000 rpm, Beckman Coulter, Inc., Fullerton, CA, USA), the total protein concentration was determined using BCA Protein Assay Kit (Beyotime, Shanghai, China). […]

TNF-α = TNF-α level in medium of LPS-induced RAW264.7 cells (ELISA); assay type: cell-based, mouse; settings: 10 μM compound (Figure 2A-C)
From the text: (§3) When inflammation occurs, LPS-activated macrophages produce a variety of inflammatory cytokines, including TNF-α, interleukins (ILs), and nitric oxide (NO), which show a host shielding effect and also accelerate the occurrence of the inflammatory response during inflammatory situations. To evaluate the anti-inflammatory activity of hesperetin derivatives, the levels of TNF-α, IL-6 and IL-1β in the medium of LPS-induced macrophage cells were detected by enzyme linked immunosorbent assay (ELISA). […] Later, we will select one of them as lead compound and modify the structure at the 3’-OH, 5-OH and 4-carbonyl positions. […] Compounds 4d (MW = 401) and 4k (MW = 427) have similar structures and should have the same mechanism. Therefore, compound 4d with lower molecular weight was selected to further explore the mechanism(s) of the anti-inflammatory effect.
(§4) RAW264.7 cells (2 × 10^5 cells/well) were cultured in 24-well plate and pretreated with 10 μM of compounds for 1 h. And then stimulated with LPS, […], for 24 h. The cell culture supernatant were collected and the levels of TNF-α, IL-6 and IL-1β were determined using the ELISA kit (Elabscience, Wuhan, China). The optical density (OD) was measured at 540 nm. The results were analyzed using Origin Pro 8 (OriginLab, Northampton, MA, USA).

IL-6 = IL-6 level in medium of LPS-induced RAW264.7 cells (ELISA); assay type: cell-based, mouse; settings: 10 μM compound (Figure 2A-C)
From the text: as §3, §4

[2] = system: LPS-induced NO production in RAW264.7 cells; assay: Inhibition of LPS-induced NO production (Griess reagent); assay type: cell-based, mouse; settings: for LPS-induced NO release: LPS-stimulated, result in words; for IC50: Mus musculus, 1 h pretreatment, then LPS 24 h, mean ± SD (n = 3)
Protocol: NO is an important inflammatory mediator and is overproduced and secreted out of mouse macrophages in response to bacterial lipopolysaccharide. To evaluate the anti-inflammatory activity of hesperetin derivatives, the secretion level of NO was detected in the medium of RAW264.7 cells after LPS stimulated with Griess reagent. Before the cells were treated with LPS (1 μg/mL) for 24 h, pretreatment with the compounds for 1 hour. […] All hesperetin derivatives could decrease the release of NO induced by LPS. […] While extended the length of the amide side chain and the inhibitory activities increased (4d > 4c > 4a; 4e > 4b). […] On the other hand, the cavity was medium-sized, large enough to accommodate cyclopentyl and propyl groups, but not enough to accommodate cyclohexyl and butyl ones (4a < 4b < 4d > 4f; 4k > 4l).
Nitrite levels were determined using the Griess method for NO has a short half-life and is oxidized to stable nitrite. RAW 264.7 cells were plated at a density of 2 × 10^5 per well in a 24-well culture plate and incubated in a 37 °C humidified incubator (5% CO2). After overnight Cultured, discarded the supernatant, added pre-configured compounds of different concentrations to the 24-well plate, and added the same one-thousandth of the DMSO solvent as the control to the experimental group for 1 h. Then LPS was added to experimental and model groups at a concentration of […] for 24 h compared to vehicle control. Following treatment, media was collected and centrifuged at 2000 rpm for 5 min to remove cellular debris. The medium from treated cells was removed and placed into a 96-well plate (50 µL per well) and was measured in culture supernatant using Griess reagent at 540 nm. The IC50 values of compounds were calculated by SPSS23.

iNOS = assay: Western blotting of iNOS expression in LPS-induced RAW264.7 cells; assay type: cell-based, mouse; settings: LPS 24 h, compound 5, 10, 20 μM (Figure 3)
Protocol: as §1, §2

IL-1β = IL-1β level in medium of LPS-induced RAW264.7 cells (ELISA); assay type: cell-based, mouse; settings: 10 μM compound (Figure 2A-C)
From the text: as §3, §4

[3] = set-up: method as in PMID 19629709; settings: cited from earlier work
[4] = set-up: method as in PMID 17047689; settings: cited from earlier work

| SMILES | cytotoxicity (RAW264.7 cells) | melting point [°C] | phosphorylation of IκBα (NF-κB signal pathway; LPS-induced RAW264.7 cells (Figure 4)) | protein expressions of NF-κB and IκBα (NF-κB signal pathway; LPS-induced RAW264.7 cells, compared with the LPS induced group (Figure 4)) | LPS-induced NF-κB p65 nuclear translocation (NF-κB signal pathway; RAW264.7 cells, pretreatment 5, 10, 20 µM) | inhibition at 10 µM [1] [%] | expression level of COX-2 (COX-2) | inhibitory effect on TNF-α production (TNF-α) | inhibitory effect on IL-6 production (IL-6) | LPS-induced NO release [2] | IC50 [2] [µM] | expression level of iNOS (iNOS) | inhibitory effect on IL-1β production (IL-1β) | elimination half-life (t1/2) [3] [h] | elimination half-life (t1/2) [4] [h] |
| --- | --- | --- | --- | --- | --- | --- | --- | --- | --- | --- | --- | --- | --- | --- | --- |
| CCCNC(=O)COc1cc(O)c2c(c1)O[C@H](c1ccc(OC)c(O)c1)CC2=O [Compound 4d, 7-O-(2-(Propylamino)-2-oxoethyl)hesperetin] | no significant cytotoxicity | 135.5 to 137.7 | markedly decreased | down-regulated | concentration-dependently reversed | 38.2 ± 1.13 | capable of reducing the expression level of COX-2 in a concentration-dependent way | greater inhibitory effects than indomethacin (Ind) and celecoxib (Cel) | greater inhibitory effects than indomethacin (Ind) and celecoxib (Cel) | significantly alleviated the increase of LPS-induced NO release | 19.3 ± 0.47 | significantly decreased the expression level of iNOS induced by LPS in a dose-dependent manner | greater inhibitory effects than indomethacin (Ind) and celecoxib (Cel) |  |  |
| COc1ccc([C@@H]2CC(=O)c3c(O)cc(OCC(=O)NC4CCCC4)cc3O2)cc1O [Compound 4k, 7-O-(2-(Cyclopentylamino)-2-oxoethyl)hesperetin] |  | 187.5 to 190 |  |  |  | 40.9 ± 0.64 |  | greater inhibitory effects than indomethacin (Ind) and celecoxib (Cel) | greater inhibitory effects than indomethacin (Ind) and celecoxib (Cel) | significantly alleviated the increase of LPS-induced NO release | 16.6 ± 0.85 |  | greater inhibitory effects than indomethacin (Ind) and celecoxib (Cel) |  |  |
| COc1ccc([C@@H]2CC(=O)c3c(O)cc(O)cc3O2)cc1O [hesperetin] |  |  |  |  |  |  |  |  |  |  |  |  |  | 3.12 | 1.78 |
| COc1ccc([C@@H]2CC(=O)c3c(O)cc(OCC(=O)NC(C)C)cc3O2)cc1O [Compound 4e, 7-O-(2-(Isopropylamino)-2-oxoethyl)hesperetin] |  | 157.6 to 160.4 |  |  |  | 27.1 ± 5.88 |  | greater inhibitory effects than indomethacin (Ind) and celecoxib (Cel) | greater inhibitory effects than indomethacin (Ind) and celecoxib (Cel) | significantly alleviated the increase of LPS-induced NO release | 26.1 ± 1.21 |  | greater inhibitory effects than indomethacin (Ind) and celecoxib (Cel) |  |  |
